The values that follow come from patent US11452717B2, “Small molecule activators of nicotinamide phosphoribosyltransferase (NAMPT) and uses thereof” (Sanford Burnham Prebys Medical Discovery Institute, priority 2017, dated 2022).

Broadly, the EC50 is the concentration giving half of the maximal effect. Read a low EC50 as an effect from little substance.

Several values for one entry are separate records, joined by “and”; a condition that tells them apart may be missing. Identical values can stand only once.

Sequence of NAMPT enzyme (P43490 whole entry, species assumed): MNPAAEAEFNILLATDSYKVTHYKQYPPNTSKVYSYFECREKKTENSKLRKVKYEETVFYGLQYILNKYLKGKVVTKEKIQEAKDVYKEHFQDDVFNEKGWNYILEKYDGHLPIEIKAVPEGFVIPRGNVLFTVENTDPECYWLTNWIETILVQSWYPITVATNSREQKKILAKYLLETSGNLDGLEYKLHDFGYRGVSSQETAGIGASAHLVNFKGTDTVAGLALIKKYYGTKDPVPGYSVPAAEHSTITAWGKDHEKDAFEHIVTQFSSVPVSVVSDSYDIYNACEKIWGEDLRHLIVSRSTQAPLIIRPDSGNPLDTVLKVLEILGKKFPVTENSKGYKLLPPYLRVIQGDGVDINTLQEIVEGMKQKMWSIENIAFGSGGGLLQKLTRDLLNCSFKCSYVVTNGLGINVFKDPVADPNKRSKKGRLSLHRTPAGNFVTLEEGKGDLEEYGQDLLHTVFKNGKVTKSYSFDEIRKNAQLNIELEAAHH

In one experiment the target is NAMPT enzyme (Homo sapiens (Human), UniProt P43490). In words: Enzyme Assay and NMN Detection (NAMPT reaction, fluorescence detection of NMN). Conditions: Table B-2; NAMPT activation, NMN formation. In kind it is biochemical. As to the method:
NAMPT reaction was performed in 50 mM HEPES, pH 7.5, containing 5 mM MgCl2, 0.1% Prionex, 0.005% Tween 20, and 1 mM TCEP at room temperature in Greiner 384-well black polypropylene plates. The concentration of substrates and enzymes in the final assay were as follows: ATP (120 uM), nicotinamide (5 uM), phosphoribosylpyrophosphate (6.25 uM), NAMPT enzyme (16 nM), pyrophosphatase (0.04 U/ml) in the final reaction volume 6 uL. Following 2 h incubation the reaction was stopped by addition 2.5 ul 20% acetophenone in dimethyl sulfoxide (DMSO) and 2.5 ul 2 MKOH. Plates were centrifuges and added with 10.5 ul 88% formic acid. The fluorescence (ex380/em460) was measured following another short incubation and 30 min incubation. The increased concentration of NMN was determined from a calibration curve obtained at the time of experiment.
The molecule `O=C(NCc1ccncc1)Nc1ccc(NS(=O)(=O)Cc2ccccc2Cl)cc1` [1-(2-chlorophenyl)-N-(4-(3-(pyridin-4-ylmethyl)ureido)phenyl)methanesulfonamide] registered an EC50 below 100 nM.

Consider `O=C(NCc1ccncc1)Nc1cccc(S(=O)(=O)N2CCOCC2)c1` [1-(3-(morpholinosulfonyl)phenyl)-3-(pyridin-4-ylmethyl)urea], for which the EC50 was above 20000 nM.

The molecule `O=C(NCc1ccncc1)Nc1ccc(NS(=O)(=O)Cc2cccc(Cl)c2)cc1` [1-(3-chlorophenyl)-N-(4-(3-(pyridin-4-ylmethyl)ureido)phenyl)methanesulfonamide] came in with an EC50 below 100 nM.

In turn, `CN1CCN(C(=O)c2ccc(NC(=O)NCc3ccncc3)cc2)CC1` [1-(4-(4-Methylpiperazine-1-carbonyl)phenyl)-3-(pyridin-4-ylmethyl)urea] displayed an EC50 of 5000 to 20000 nM.

For `O=C(NCc1ccncc1)Nc1ccc(C(=O)N2CC3CCC(C2)O3)cc1` [1-(4-(8-Oxa-3-azabicyclo[3.2.1]octane-3-carbonyl)phenyl)-3-(pyridin-4-ylmethyl)urea], the EC50 fell in the range of 100 to 2000 nM.

Staying with this experiment, now noted: Table B-4; NAMPT activation, NMN formation.
On to `O=C(NCc1cn[nH]c1)Nc1ccc(S(=O)(=O)c2ccccc2-c2cccnc2)cc1` [1-(1H-Pyrazol-4-ylmethyl)-3-[4-(2-pyridin-3-yl-benzenesulfonyl)-phenyl]-urea], for which the EC50 lay in the range of 100 to 2000 nM.

The molecule `O=C(NCc1cn[nH]c1)Nc1ccc(S(=O)(=O)c2ccccc2-c2ccncc2)cc1` [1-(1H-Pyrazol-4-ylmethyl)-3-[4-(2-pyridin-4-yl-benzenesulfonyl)-phenyl]-urea] registered an EC50 of 100 to 2000 nM.

`O=C(NCc1cn[nH]c1)Nc1ccc(S(=O)(=O)c2ccccc2OC(F)(F)F)cc1` [1-(1H-Pyrazol-4-ylmethyl)-3-[4-(2-trifluoromethoxy-benzenesulfonyl)-phenyl]-urea] had an EC50 below 100 nM.

With `O=C(NCc1cn[nH]c1)Nc1ccc(S(=O)(=O)c2ccccc2C(F)(F)F)cc1` [1-(1H-Pyrazol-4-ylmethyl)-3-[4-(2-trifluoromethyl-benzenesulfonyl)-phenyl]-urea], the EC50 lay within 100 to 2000 nM.

In turn, `O=C(NCc1cn[nH]c1)Nc1ccc(S(=O)(=O)c2cccc(OC(F)(F)F)c2)cc1` [1-(1H-Pyrazol-4-ylmethyl)-3-[4-(3-trifluoromethoxy-benzenesulfonyl)-phenyl]-urea] yielded an EC50 below 100 nM.

`Cc1cccc(-c2csc(Nc3ccc(NC(=O)NCc4cn[nH]c4)cc3)n2)c1` [1-(1H-Pyrazol-4-ylmethyl)-3-[4-(4-m-tolyl-thiazol-2-ylamino)-phenyl]-urea] had an EC50 of 100 to 2000 nM.

Take `Cc1ccccc1-c1csc(Nc2ccc(NC(=O)NCc3cn[nH]c3)cc2)n1` [1-(1H-Pyrazol-4-ylmethyl)-3-[4-(4-o-tolyl-thiazol-2-ylamino)-phenyl]-urea]: the EC50 fell in the range of 100 to 2000 nM.

For `Cc1ccc(-c2csc(Nc3ccc(NC(=O)NCc4cn[nH]c4)cc3)n2)cc1` [1-(1H-Pyrazol-4-ylmethyl)-3-[4-(4-p-tolyl-thiazol-2-ylamino)-phenyl]-urea], the EC50 was 2000 to 5000 nM.

In the case of `O=C(NCc1cn[nH]c1)Nc1ccc(S(=O)(=O)c2ccc(OC(F)(F)F)cc2)cc1` [1-(1H-Pyrazol-4-ylmethyl)-3-[4-(4-trifluoromethoxy-benzenesulfonyl)-phenyl]-urea], the EC50 lay within 100 to 2000 nM.

Take `O=C(NCc1cn[nH]c1)Nc1ccc(S(=O)(=O)c2cccnc2)cc1` [1-(1H-Pyrazol-4-ylmethyl)-3-[4-(pyridine-3-sulfonyl)-phenyl]-urea]: the EC50 lay within 100 to 2000 nM.

In turn, `O=C(NCc1cn[nH]c1)Nc1ccc(S(=O)(=O)c2ncccn2)cc1` [1-(1H-Pyrazol-4-ylmethyl)-3-[4-(pyrimidine-2-sulfonyl)-phenyl]-urea] showed an EC50 of 2000 to 5000 nM.

Regarding `O=C(NCc1cn[nH]c1)Nc1ccc(S(=O)(=O)c2nccs2)cc1` [1-(1H-Pyrazol-4-ylmethyl)-3-[4-(thiazole-2-sulfonyl)-phenyl]-urea], the EC50 is 2000 to 5000 nM and 100 to 2000 nM.

`Cc1ccccc1S(=O)(=O)c1ccc(NC(=O)NCc2cn[nH]c2)cc1` [1-(1H-Pyrazol-4-ylmethyl)-3-[4-(toluene-2-sulfonyl)-phenyl]-urea] yielded an EC50 below 100 nM.

`Cc1cccc(S(=O)(=O)c2ccc(NC(=O)NCc3cn[nH]c3)cc2)c1` [1-(1H-Pyrazol-4-ylmethyl)-3-[4-(toluene-3-sulfonyl)-phenyl]-urea] yielded an EC50 of 100 to 2000 nM.

`Cc1ccc(S(=O)(=O)c2ccc(NC(=O)NCc3cn[nH]c3)cc2)cc1` [1-(1H-Pyrazol-4-ylmethyl)-3-[4-(toluene-4-sulfonyl)-phenyl]-urea]: the EC50 fell in the range of 100 to 2000 nM.

Take `O=C(NCc1cn[nH]c1)Nc1ccc(S(=O)(=O)C2CCN(C3CCOCC3)CC2)cc1` [1-(1H-Pyrazol-4-ylmethyl)-3-{4-[1-(tetrahydro-pyran-4-yl)-piperidine-4-sulfonyl]-phenyl}-urea]: the EC50 is 100 to 2000 nM.

Staying with this experiment, now noted: Table B-5; NAMPT activation, NMN formation.
As to `O=C(NCc1cnco1)Nc1ccc(NS(=O)(=O)Cc2ccccc2Cl)cc1` [1-(2-Chlorophenyl)-N-(4-(3-(oxazol-5-ylmethyl)ureido)phenyl)methanesulfonamide], the EC50 was below 100 nM.

The molecule `O=C(NCc1cnco1)Nc1ccc(NS(=O)(=O)Cc2ccc(Cl)c(Cl)c2)cc1` [1-(3,4-Dichlorophenyl)-N-(4-(3-(oxazol-5-ylmethyl)ureido)phenyl)methanesulfonamide] yielded an EC50 below 100 nM.

`O=C(NCc1cnco1)Nc1ccc(NS(=O)(=O)Cc2cccc(Cl)c2)cc1` [1-(3-Chlorophenyl)-N-(4-(3-(oxazol-5-ylmethyl)ureido)phenyl)methanesulfonamide] registered an EC50 below 100 nM.

`Cc1ccc2c(c1)c(-c1ccc(NC(=O)NCc3cnco3)cc1)nn2C` [1-(4-(1,5-Dimethyl-1H-indazol-3-yl)phenyl)-3-(oxazol-5-ylmethyl)urea] showed an EC50 of 5000 to 20000 nM.

`Cc1cccc2c(-c3ccc(NC(=O)NCc4cnco4)cc3)nn(C)c12` [1-(4-(1,7-Dimethyl-1H-indazol-3-yl)phenyl)-3-(oxazol-5-ylmethyl)urea] showed an EC50 of 2000 to 5000 nM.

For `O=C(NCc1cnco1)Nc1ccc(-c2ncc(Cc3ccccc3)s2)cc1` [1-(4-(5-Benzylthiazol-2-yl)phenyl)-3-(oxazol-5-ylmethyl)urea], the EC50 is 5000 to 20000 nM.

Turning to `Cn1nc(-c2ccc(NC(=O)NCc3cnco3)cc2)c2cc(Cl)ccc21` [1-(4-(5-Chloro-1-methyl-1H-indazol-3-yl)phenyl)-3-(oxazol-5-ylmethyl)urea], the EC50 lay within 100 to 2000 nM.

Turning to `O=C(NCc1cnco1)Nc1ccc(S(=O)(=O)c2cn[nH]c2)cc1` [1-(4-((1H-pyrazol-4-yl)sulfonyl)phenyl)-3-(oxazol-5-ylmethyl)urea], the EC50 is 100 to 2000 nM.

`O=C(NCc1cnco1)Nc1ccc(S(=O)(=O)c2ccccc2F)cc1` [1-(4-((2-Fluorophenyl)sulfonyl)phenyl)-3-(oxazol-5-ylmethyl)urea]: the EC50 is 100 to 2000 nM.

For the molecule `COc1ccccc1S(=O)(=O)c1ccc(NC(=O)NCc2cnco2)cc1` [1-(4-((2-Methoxyphenyl)sulfonyl)phenyl)-3-(oxazol-5-ylmethyl)urea], the EC50 was 100 to 2000 nM.

The same experiment, now with this note: Table B-6; NAMPT activation, NMN formation.
The molecule `O=C(NCc1cn[nH]c1)Nc1ccc(S(=O)(=O)C2CCN(C3CCOCC3)CC2)cc1` [1-(1H-Pyrazol-4-ylmethyl)-3-{4-[1-(tetrahydro-pyran-4-yl)-piperidine-4-sulfonyl]-phenyl}-urea] had an EC50 of 100 to 2000 nM.

Consider `N#Cc1cc(NC(=O)NCc2ccncc2)ccc1S(=O)(=O)c1cc(F)cc(F)c1` [1-(3-Cyano-4-((3,5-difluorophenyl)sulfonyl)phenyl)-3-(pyridin-4-ylmethyl)urea], for which the concentration giving a half-maximal response (EC50) fell in the range of 100 to 2000 nM.

With `Cc1cccc2c1c(-c1ccc(NC(=O)NCc3ccncc3)cc1)nn2C` [1-(4-(1,4-Dimethyl-1H-indazol-3-yl)phenyl)-3-(pyridin-4-ylmethyl)urea], the EC50 is 100 to 2000 nM.

The molecule `Cc1ccc2c(c1)c(-c1ccc(NC(=O)NCc3ccncc3)cc1)nn2C` [1-(4-(1,5-Dimethyl-1H-indazol-3-yl)phenyl)-3-(pyridin-4-ylmethyl)urea] had an EC50 of 100 to 2000 nM.

With `Cc1cccc2c(-c3ccc(NC(=O)NCc4ccncc4)cc3)nn(C)c12` [1-(4-(1,7-Dimethyl-1H-indazol-3-yl)phenyl)-3-(pyridin-4-ylmethyl)urea], the EC50 is 100 to 2000 nM.

Consider `Cn1nc(-c2ccc(NC(=O)NCc3ccncc3)cc2)c2ccncc21` [1-(4-(1-Methyl-1H-pyrazolo[3,4-c]pyridin-3-yl)phenyl)-3-(pyridin-4-ylmethyl)urea], for which the EC50 is 100 to 2000 nM.

The molecule `O=C(NCc1ccncc1)Nc1ccc(-c2ncc(Cc3ccccc3)s2)cc1` [1-(4-(5-Benzylthiazol-2-yl)phenyl)-3-(pyridin-4-ylmethyl)urea] displayed an EC50 of 5000 to 20000 nM.

Take `Cn1nc(-c2ccc(NC(=O)NCc3ccncc3)cc2)c2cc(Cl)ccc21` [1-(4-(5-Chloro-1-methyl-1H-indazol-3-yl)phenyl)-3-(pyridin-4-ylmethyl)urea]: the EC50 is 2000 to 5000 nM.

With `O=C(NCc1ccncc1)Nc1ccc(S(=O)(=O)c2cn[nH]c2)cc1` [1-(4-((1H-pyrazol-4-yl)sulfonyl)phenyl)-3-(pyridin-4-ylmethyl)urea], the EC50 lay within 100 to 2000 nM.

`COc1ccc(-c2ccccc2S(=O)(=O)c2ccc(NC(=O)NCc3ccncc3)cc2)cn1` [1-(4-((2-(6-Methoxypyridin-3-yl)phenyl)sulfonyl)phenyl)-3-(pyridin-4-ylmethyl)urea]: the EC50 lay in the range of 5000 to 20000 nM.

For `O=C(NCc1ccncc1)Nc1ccc(S(=O)(=O)c2ccccc2F)cc1` [1-(4-((2-Fluorophenyl)sulfonyl)phenyl)-3-(pyridin-4-ylmethyl)urea], the EC50 fell in the range of 100 to 2000 nM.

`O=C(NCc1ccncc1)Nc1ccc(S(=O)(=O)c2ccccc2-c2ccccc2Cl)cc1` [1-(4-((2′-Chloro-[1,l′-biphenyl]-2-yl)sulfonyl)phenyl)-3-(pyridin-4-ylmethyl)urea] had an EC50 of 100 to 2000 nM.
